Columns and labels:
A-375 = assay: cells; format: functional, cell-based; conditions: Homo sapiens, A-375, 72 h
Description: Antiproliferative activity against human A375 cells assessed as cell viability incubated for 72 hrs by cell titer-glo luminescent cell viability assay (Rvb = > 100 uM)

HEK293 = assay: cells; format: ADME, cell-based; conditions: Homo sapiens, HEK293, 72 h
Homo sapiens [1] = organism: Homo sapiens; conditions: at 20 µM
Description: Inhibition of GST-tagged MEK1/ERK2 (unknown origin) cascading pathway assessed as reduction in ERK2 phosphorylation at 20 uM incubated for 2 hrs by HTRF assay relative to control

HL-60 = assay: cells; format: functional, cell-based; conditions: Homo sapiens, HL-60, 72 h
[2] = Inhibition of BRAF/MEK1 (unknown origin) cascading pathway assessed as reduction in MEK1 phosphorylation incubated for 2 hrs in presence of 100 uM ATP by HTRF assay; design: species or system Homo sapiens
[3] = Inhibition of BRAF/MEK1 (unknown origin) cascading pathway assessed as reduction in MEK1 phosphorylation incubated for 2 hrs in presence of 300 uM ATP by HTRF assay; design: species or system Homo sapiens
Sf21 [4] = conditions: Homo sapiens, at 20 µM
Description: Inhibition of recombinant N-terminal GST-tagged human BRAF (433-726 residues) expressed in baculovirus infected sf21 insect cells/recombinant human full length N-terminal GST-tagged MEK1 expressed in Escherichia coli cascading pathway assessed as reduction in MEK1 phosphorylation at 20 uM incubated for 2 hrs by HTRF assay relative to control

A549 = assay: cells; format: functional, cell-based; conditions: Homo sapiens, A549, 72 h
[5] = molecular target: Dual specificity mitogen-activated protein kinase kinase 1 (Homo sapiens) (UniProt Q02750); assay: Inhibition of recombinant full length GST-tagged human MEK1 expressed in baculovirus infected sf9 insect cells at 20 uM measured after 30 to 90 mins by HTRF based Lanthascreen Eu kinase binding assay relative to AZD6244
[6] = Inhibition of GST-tagged MEK1/ERK2 (unknown origin) cascading pathway assessed as reduction in ERK2 phosphorylation incubated for 2 hrs by HTRF assay relative to control; design: species or system Homo sapiens
Homo sapiens [7] = organism: Homo sapiens; conditions: at 2 µM
Description: Inhibition of GST-tagged MEK1/ERK2 (unknown origin) cascading pathway assessed as reduction in ERK2 phosphorylation at 2 uM incubated for 2 hrs by HTRF assay relative to control

[8] = molecular target: Dual specificity mitogen-activated protein kinase kinase 1 (Homo sapiens) (UniProt Q02750); assay: Inhibition of recombinant full length GST-tagged human MEK1 expressed in baculovirus infected sf9 insect cells at 2 uM measured after 30 to 90 mins by HTRF based Lanthascreen Eu kinase binding assay relative to AZD6244
Sf21 [9] = conditions: Homo sapiens, at 2 µM
Description: Inhibition of recombinant N-terminal GST-tagged human BRAF (433-726 residues) expressed in baculovirus infected sf21 insect cells/recombinant human full length N-terminal GST-tagged MEK1 expressed in Escherichia coli cascading pathway assessed as reduction in MEK1 phosphorylation at 2 uM incubated for 2 hrs by HTRF assay relative to control

Chain of Dual specificity mitogen-activated protein kinase kinase 1 (Homo sapiens) (Q02750 whole entry): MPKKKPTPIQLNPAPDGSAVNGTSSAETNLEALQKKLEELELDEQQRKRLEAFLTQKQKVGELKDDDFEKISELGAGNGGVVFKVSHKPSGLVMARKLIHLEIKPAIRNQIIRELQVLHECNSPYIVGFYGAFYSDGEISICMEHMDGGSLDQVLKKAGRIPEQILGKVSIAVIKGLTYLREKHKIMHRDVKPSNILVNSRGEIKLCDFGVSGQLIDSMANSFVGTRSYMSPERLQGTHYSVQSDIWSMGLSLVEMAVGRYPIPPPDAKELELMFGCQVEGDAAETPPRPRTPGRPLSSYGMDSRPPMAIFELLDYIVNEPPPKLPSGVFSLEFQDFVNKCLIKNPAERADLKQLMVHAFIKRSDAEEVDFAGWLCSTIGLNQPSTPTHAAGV

Compound	IC50 (A-375)	IC50 (HEK293)	inhibition (Homo sapiens [1])	IC50 (HL-60)	inhibition (Sf21 [4])	IC50 (A549)	other results
Cc1ccc(S(=O)(=O)Nc2cc(OCC(=O)O)cc3c2[nH]c2ccccc23)cc1	> 100 µM	> 100 µM	21.5%	> 100 µM	65.8%	> 100 µM	IC50 [2]: 13.2 µM; IC50 [3]: 12.1 µM
Cc1ccc(S(=O)(=O)Nc2cc(OCc3nnc(N)o3)cc3c2[nH]c2ccccc23)cc1			21.4%		33%		
Cc1ccc(S(=O)(=O)Nc2cc(OCc3nc(C)no3)cc3c2[nH]c2ccccc23)cc1			37.8%		38.2%		
CCOC(=O)CSc1cc(NS(=O)(=O)c2ccc(NC(C)=O)cc2)c2[nH]c3ccccc3c2c1			21.8%		35.8%		
Cc1ccc(S(=O)(=O)Nc2cc(SCC(=O)O)c(O)c3c2[nH]c2ccccc23)cc1	14.7 µM	> 100 µM	35.6%	26.3 µM	43.7%	12.8 µM	
Cc1ccc(S(=O)(=O)Nc2cc(SCC(=O)O)c(O)c3ccccc23)cc1	7.7 µM	8.9 µM	32%	17.2 µM	56.1%	21.6 µM	inhibition [5]: 90.3%; IC50 [6]: > 160 µM; inhibition (Homo sapiens [7]): 3.9%; inhibition [8]: 32.1%; inhibition (Sf21 [9]): 4.4%
Cc1ccc(S(=O)(=O)Nc2cc(SCC(=O)O)cc3c2[nH]c2ccccc23)cc1	> 100 µM	> 100 µM	21.4%	> 100 µM	67.2%	> 100 µM	
CC(=O)Nc1ccc(S(=O)(=O)Nc2cc(SCC(=O)O)cc3c2[nH]c2ccccc23)cc1			27.7%		44.2%		
CC(=O)Nc1cccc(S(=O)(=O)Nc2cc(OCc3nnc(C)o3)cc3c2[nH]c2ccccc23)c1			-10%		29.5%		
CCOC(=O)COc1cc(NS(=O)(=O)c2ccc(C)cc2)c2[nH]c3ccccc3c2c1	70.7 µM	> 100 µM	28.9%	> 100 µM	56.6%	70.7 µM	
CC(=O)Nc1ccc(S(=O)(=O)Nc2cc(OCc3nnc(C)o3)cc3c2[nH]c2ccccc23)cc1	43.7 µM	> 100 µM	20.6%	> 100 µM	50.7%	> 100 µM	
COc1cc(/C=C2\C(=O)NN(c3ccc(I)cc3)C2=O)ccc1OC(C)=O			35%		57%		inhibition [5]: 60.1%; IC50 [6]: 63.1 µM; inhibition (Homo sapiens [7]): 5.1%; inhibition [8]: 11.9%; inhibition (Sf21 [9]): 6.3%
CCOC(=O)COc1cc(NS(=O)(=O)c2ccc(NC(C)=O)cc2)c2[nH]c3ccccc3c2c1			18.2%		27.4%		
Cc1ccc(S(=O)(=O)Nc2cc(OCc3nnc(C)o3)cc3c2[nH]c2ccccc23)cc1			25.8%		48.6%		
CCOC(=O)CSc1cc(NS(=O)(=O)c2ccc(C)cc2)c2[nH]c3ccccc3c2c1			39.2%		45.2%		
Cc1ccc(S(=O)(=O)Nc2cc(OCc3nnn[nH]3)cc3c2[nH]c2ccccc23)cc1			45.1%		46.8%		
N#CC(=C(/N)Sc1ccccc1N)/C(C#N)=C(\N)Sc1ccccc1N	1.1 µM		80.9%		87.4%	32.2 µM	inhibition (Homo sapiens [7]): 26.9%; inhibition (Sf21 [9]): 41.7%
Cc1ccc(S(=O)(=O)Nc2cc(S(=O)(=O)CC(=O)O)cc3c2[nH]c2ccccc23)cc1			35.5%		45%		
Cc1ccc(S(=O)(=O)Nc2cc(OCC(N)=O)cc3c2[nH]c2ccccc23)cc1			27.9%		41.9%		
